In brackets after ≈: the same amount, converted by molar mass.
Legend:
E. faecium OC3312 = test: MIC by microdilution broth method (NCCLS), E. faecium OC3312; type: cell-based; details: Enterococcus faecium, OC3312, microdilution broth, cation adjusted Mueller-Hinton broth, 35° C., 16-20 hours; read-out: MIC (μg/mL) E. faecium OC3312
Method: (§1) Minimal inhibitory concentration (MIC) has been an indicator of in vitro antibacterial activity widely used in the art. The in vitro antimicrobial activity of the compounds was determined by the microdilution broth method following the test method from the National Committee for Laboratory Standards (NCCLS). This method is described in the NCCLS Document M7-A4, Vol. 17, No.2, “Methods for Dilution Antimicrobial Susceptibility Test for Bacteria that Grow Aerobically-Fourth Edition”, which is incorporated herein by reference.
(§2) In this method two-fold serial dilutions of drug in cation adjusted Mueller-Hinton broth are added to wells in microdilution trays. The test organisms are prepared by adjusting the turbidity of actively growing broth cultures so that the final concentration of test organism after it is added to the wells is approximately 5×10^4 CFU/well.
(§3) Following inoculation of the microdilution trays, the trays are incubated at 35° C. for 16-20 hours and then read. […] The amount of growth in the wells containing the test compound is compared with the amount of growth in the growth-control wells (no test compound) used in each tray. As set forth in Table 1, compounds of the present invention were tested against a variety of Gram positive and Gram negative pathogenic bacteria resulting in a range of activities, from 1 to ≧128 μg/mL depending on the organism tested.

S. aureus = test: MIC by microdilution broth method (NCCLS), S. aureus Broth; type: cell-based; details: Staphylococcus aureus, cation adjusted Mueller-Hinton broth, 35° C., 16-20 hours, read-out: MIC (μg/mL) S. aureus Broth
Method: as §1, §2, §3

MRSA OC 2878 = test: MIC by microdilution broth method (NCCLS), MRSA OC 2878; type: cell-based, Staphylococcus aureus; details: Staphylococcus aureus, MRSA, cation adjusted Mueller-Hinton broth, 35° C., 16-20 hours, read-out: MIC (μg/mL) MRSA OC 2878
Method: as §1, §2, §3

| SMILES | MIC (E. faecium OC3312) | melting point | MIC (S. aureus) | MIC (MRSA OC 2878) |
| --- | --- | --- | --- | --- |
| CC(=O)NC[C@H]1CN(c2ccc(OC3CCN(C(=O)OC(C)(C)C)CC3)c(F)c2)C(=O)O1 [Compound 1, (S)-N-[[3-[3-Fluoro-4-{N-(t-butoxycarbonyl)piperidinyl-4-oxy}phenyl]-2-oxo-5-oxazolidinyl]methyl]acetamide] | > 32 µg/mL | 179 to 180 °C | 32 µg/mL (≈ 70.9 µM) | 16 µg/mL (≈ 35.4 µM) |
| CC(=O)NC[C@H]1CN(c2ccc(OC3CCNCC3)c(F)c2)C(=O)O1 [Compound 2, (S)-N-[[3-[3-Fluoro-4-{piperidinyl-4-oxy}phenyl]-2-oxo-5-oxazolidinyl]methyl]acetamide] | 8 µg/mL (≈ 22.8 µM) | 55 to 59 °C | 8 µg/mL (≈ 22.8 µM) | 32 µg/mL (≈ 91.1 µM) |
| CC(=O)NC[C@H]1CN(c2ccc(OC3CCN(S(C)(=O)=O)CC3)c(F)c2)C(=O)O1 [Compound 6, (S)-N-[[3-[3-Fluoro-4-{N-(methanesulfonyl)piperidinyl-4-oxy}phenyl]-2-oxo-5-oxazolidinyl]methyl]acetamide] | 8 µg/mL (≈ 18.6 µM) | 123 to 125 °C | 4 µg/mL (≈ 9.31 µM) | 4 µg/mL (≈ 9.31 µM) |
| CC(=O)NC[C@H]1CN(c2ccc(OC3CCN(c4ncccn4)CC3)c(F)c2)C(=O)O1 [Compound 9, (S)-N-[[3-[3-Fluoro-4-{N-(2-pyrimidinyl)piperidinyl-4-oxy}phenyl]-2-oxo-5-oxazolidinyl]methyl]acetamide] | 8 µg/mL (≈ 18.6 µM) | 121 to 123 °C | 4 µg/mL (≈ 9.31 µM) | 4 µg/mL (≈ 9.31 µM) |
| CC(=O)NC[C@H]1CN(c2ccc(OC3CCN(C(=O)c4cccc(C(F)(F)F)c4)CC3)c(F)c2)C(=O)O1 [Compound 10, (S)-N-[[3-[3-Fluoro-4-{N-(3-trifluoromethylbenzoyl)piperidinyl-4-oxy}phenyl]-2-oxo-5-oxazolidinyl]methyl]acetamide] | 32 µg/mL (≈ 61.1 µM) | 150 to 152 °C | 16 µg/mL (≈ 30.6 µM) | 16 µg/mL (≈ 30.6 µM) |
| CC(=O)NC[C@H]1CN(c2ccc(OC3CCN(C(=O)c4ccc(C#N)cc4)CC3)c(F)c2)C(=O)O1 [Compound 11, (S)-N-[[3-[3-Fluoro-4-{N-(4-cyanobenzoyl)piperidinyl-4-oxy}phenyl]-2-oxo-5-oxazolidinyl]methyl]acetamide] | 16 µg/mL (≈ 33.3 µM) | 75 to 78 °C | 16 µg/mL (≈ 33.3 µM) | 8 µg/mL (≈ 16.6 µM) |
| CC(=O)NC[C@H]1CN(c2ccc(OC3CCN(C(=O)c4cccc(C#N)c4)CC3)c(F)c2)C(=O)O1 [Compound 12, (S)-N-[[3-[3-Fluoro-4-{N-(3-cyanobenzoyl)piperidinyl-4-oxy}phenyl]-2-oxo-5-oxazolidinyl]methyl]acetamide] | 16 µg/mL (≈ 33.3 µM) | 82 to 85 °C | 8 µg/mL (≈ 16.6 µM) | 8 µg/mL (≈ 16.6 µM) |
| CC(=O)NC[C@H]1CN(c2ccc(OC3CCN(c4ccc(C#N)cn4)CC3)c(F)c2)C(=O)O1 [Compound 14, (S)-N-[[3-[3-Fluoro-4-{N-(5-cyano-2-pyridyl)piperidinyl-4-oxy}phenyl]-2-oxo-5-oxazolidinyl]methyl]acetamide] | 8 µg/mL (≈ 17.6 µM) | 78 to 84 °C | 4 µg/mL (≈ 8.82 µM) | 4 µg/mL (≈ 8.82 µM) |
| CC(=O)NC[C@H]1CN(c2ccc(OC3CCN(C(=O)CN)CC3)c(F)c2)C(=O)O1 [Compound 16] | 32 µg/mL (≈ 78.3 µM) | 142 to 146 °C | 32 µg/mL (≈ 78.3 µM) | 32 µg/mL (≈ 78.3 µM) |
| CC(=O)NC[C@H]1CN(c2ccc(OC3CCN(C(=O)CNS(C)(=O)=O)CC3)c(F)c2)C(=O)O1 [Compound 17, (S)-N-[[3-[3-Fluoro-4-{N-(α-methylsulfonylaminoacetyl)piperidinyl-4-oxy}phenyl]-2-oxo-5-oxazolidinyl]methyl]acetamide] | 16 µg/mL (≈ 32.9 µM) | 78 to 82 °C | 8 µg/mL (≈ 16.4 µM) | 16 µg/mL (≈ 32.9 µM) |
| CC(=O)NCC(=O)N1CCC(Oc2ccc(N3C[C@H](CNC(C)=O)OC3=O)cc2F)CC1 [Compound 18, (S)-N-[[3-[3-Fluoro-4-{N-(α-N-acetylaminoacetyl)piperidinyl-4-oxy}phenyl]-2-oxo-5-oxazolidinyl]methyl]acetamide] | 64 µg/mL (≈ 142 µM) | 66 to 68 °C | 8 µg/mL (≈ 17.8 µM) | 16 µg/mL (≈ 35.5 µM) |
| CC(=O)NC[C@H]1CN(c2ccc(OC3CCCN(C(=O)COCc4ccccc4)C3)c(F)c2)C(=O)O1 (stereo partly drawn) [Compound 35, (S)-N-[[3-[3-Fluoro-4-{N-(benzyloxyacetyl)piperidinyl-3-oxy}phenyl]-2-oxo-5-oxazolidinyl]methyl]acetamide] | 64 µg/mL (≈ 128 µM) |  | 32 µg/mL (≈ 64.1 µM) | 32 µg/mL (≈ 64.1 µM) |
| CC(=O)NC[C@H]1CN(c2ccc(OC3CCCN(C(=O)CO)C3)c(F)c2)C(=O)O1 (stereo partly drawn) [Compound 36, (S)-N-[[3-[3-Fluoro-4-{N-(α-hydroxyacetyl)piperidinyl-3-oxy}phenyl]-2-oxo-5-oxazolidinyl]methyl]acetamide] | 16 µg/mL (≈ 39.1 µM) |  | 8 µg/mL (≈ 19.5 µM) | 8 µg/mL (≈ 19.5 µM) |
| CC(=O)OCC(=O)N1CC(Oc2ccc(N3C[C@H](CN(C(C)=O)C(=O)COC(C)=O)OC3=O)cc2F)C1 [Compound 60, (S)-N-[[3-[3-Fluoro-4-{N-(acetoxyacetyl)azetidinyl-3-oxy}phenyl]-2-oxo-5-oxazolidinyl]methyl]-N-[α-acetoxyacetyl]acetamide] | > 128 µg/mL |  | 8 µg/mL (≈ 15.3 µM) | 16 µg/mL (≈ 30.6 µM) |

Further lines, results first:

| MIC (E. faecium OC3312) | melting point | MIC (S. aureus) | MIC (MRSA OC 2878) | SMILES |
| --- | --- | --- | --- | --- |
| 16 µg/mL (≈ 40.7 µM) |  | 8 µg/mL (≈ 20.3 µM) | 8 µg/mL (≈ 20.3 µM) | CC(=O)NC[C@H]1CN(c2ccc(OC3CCCN(C(C)=O)C3)c(F)c2)C(=O)O1 (stereo partly drawn) [Compound 37, (S)-N-[[3-[3-Fluoro-4-{N-(acetyl)piperidinyl-3-oxy}phenyl]-2-oxo-5-oxazolidinyl]methyl]acetamide] |
| > 128 µg/mL |  | 32 µg/mL (≈ 66.3 µM) | 32 µg/mL (≈ 66.3 µM) | CC(=O)NC[C@H]1CN(c2ccc(OC3CCN(C(=O)COCc4ccccc4)CC3)nc2)C(=O)O1 [Compound 42, (5S)-3-[6-{N-(Benzyloxyacetyl)piperidinyl-4-oxy}-pyridin-3-yl]-5-methylacetamide-oxazolidin-2-one] |
| > 128 µg/mL |  | 128 µg/mL (≈ 340 µM) | 128 µg/mL (≈ 340 µM) | CC(=O)NC[C@H]1CN(c2ccc(OC3CCN(C(C)=O)CC3)nc2)C(=O)O1 [Compound 43, (5S)-3-[6-{N-(Acetyl)piperidinyl-4-oxy}-pyridin-3-yl]-5-methylacetamide-oxazolidin-2-one] |
| 128 µg/mL (≈ 276 µM) |  | 64 µg/mL (≈ 138 µM) | 64 µg/mL (≈ 138 µM) | CC(=O)NC[C@H]1CN(c2ccc(OC3CCN(C(=O)c4ccc(C#N)cc4)CC3)nc2)C(=O)O1 [Compound 45, (5S)-3-[6-{N-(4-Cyanobenzoyl)piperidinyl-4-oxy}-pyridin-3-yl]-5-methylacetamide-oxazolidin-2-one] |
| > 128 µg/mL |  | 64 µg/mL (≈ 140 µM) | 64 µg/mL (≈ 140 µM) | CC(=O)NC[C@H]1CN(c2ccc(OC3CCN(C(=O)c4cccc(F)c4)CC3)nc2)C(=O)O1 [Compound 47, (5S)-3-[6-{N-(3-Fluorobenzoyl)piperidinyl-4-oxy}-pyridin-3-yl]-5-methylacetamide-oxazolidin-2-one] |
| > 128 µg/mL |  | 64 µg/mL (≈ 137 µM) | 32 µg/mL (≈ 68.3 µM) | COc1cccc(C(=O)N2CCC(Oc3ccc(N4C[C@H](CNC(C)=O)OC4=O)cn3)CC2)c1 [Compound 48, (5S)-3-[6-{N-(3-Methoxybenzoyl)piperidinyl-4-oxy}-pyridin-3-yl]-5-methylacetamide-oxazolidin-2-one] |
| > 128 µg/mL |  | > 64 µg/mL | 128 µg/mL (≈ 316 µM) | CC(=O)NC[C@H]1CN(c2ccc(OC3CCN(C(=O)N(C)C)CC3)nc2)C(=O)O1 [Compound 49, (5S)-3-[6-{N-(Dimethylcarbamoyl)piperidinyl-4-oxy}-pyridin-3-yl]-5-methylacetamide-oxazolidin-2-one] |
| > 64 µg/mL |  | > 64 µg/mL | 64 µg/mL (≈ 113 µM) | CC(=O)NC[C@H]1CN(c2ccc(OC3CCN(C(=O)C(NC(=O)OCc4ccccc4)C(C)C)CC3)nc2)C(=O)O1 (some centres unmarked) [Compound 50] |
| 4 µg/mL (≈ 8.96 µM) |  | 8 µg/mL (≈ 17.9 µM) | 8 µg/mL (≈ 17.9 µM) | CC(=O)NC[C@H]1CN(c2ccc(OC3CCN(C(=O)c4ccno4)CC3)c(F)c2)C(=O)O1 [Compound 52, (S)-N-[[3-[3-Fluoro-4-{N-(5-isoxazolylcarbonyl)piperdinyl-4-oxy}phenyl]-2-oxo-5-oxazolidinyl]methyl]acetamide] |
| 8 µg/mL (≈ 16 µM) |  | 8 µg/mL (≈ 16 µM) | 8 µg/mL (≈ 16 µM) | CC(=O)NC[C@H]1CN(c2ccc(OC3CCN(C(=O)COCc4ccncc4)CC3)c(F)c2)C(=O)O1 [Compound 54] |
| 8 µg/mL (≈ 16 µM) |  | 16 µg/mL (≈ 32 µM) | 16 µg/mL (≈ 32 µM) | CC(=O)NC[C@H]1CN(c2ccc(OC3CCN(C(=O)COCc4cccnc4)CC3)c(F)c2)C(=O)O1 [Compound 55] |
| 32 µg/mL (≈ 66.9 µM) |  | 32 µg/mL (≈ 66.9 µM) | 32 µg/mL (≈ 66.9 µM) | CC(=O)NC[C@H]1CN(c2ccc(OC3CCN(C(=O)CN4CCOCC4)CC3)c(F)c2)C(=O)O1 [Compound 56] |
| 16 µg/mL (≈ 39.9 µM) |  | 16 µg/mL (≈ 39.9 µM) | 16 µg/mL (≈ 39.9 µM) | CC(=O)NC[C@H]1CN(c2ccc(OC3CN(S(C)(=O)=O)C3)c(F)c2)C(=O)O1 [Compound 57, (S)-N-[[3-[3-Fluoro-4-{N-(methanesulfonyl)azetidinyl-3-oxy}phenyl]-2-oxo-5-oxazolidinyl]methyl]acetamide] |
